From patent US20170333459A1 (priority 2010, published 2017)
Where “and” joins values, the source holds several entries; their conditions need not be identical. Equal entries are not always repeated.

How the values were obtained:
hOAT3 [1] = biological target: T1, hOAT3 (Homo sapiens, UniProt Q8TCC7); parameters: host or cells: MDCK-II cells, transiently transfected; settings: reported for hOAT3-mediated uptake; cited from earlier work
T1 sequence (Q8TCC7 1-542): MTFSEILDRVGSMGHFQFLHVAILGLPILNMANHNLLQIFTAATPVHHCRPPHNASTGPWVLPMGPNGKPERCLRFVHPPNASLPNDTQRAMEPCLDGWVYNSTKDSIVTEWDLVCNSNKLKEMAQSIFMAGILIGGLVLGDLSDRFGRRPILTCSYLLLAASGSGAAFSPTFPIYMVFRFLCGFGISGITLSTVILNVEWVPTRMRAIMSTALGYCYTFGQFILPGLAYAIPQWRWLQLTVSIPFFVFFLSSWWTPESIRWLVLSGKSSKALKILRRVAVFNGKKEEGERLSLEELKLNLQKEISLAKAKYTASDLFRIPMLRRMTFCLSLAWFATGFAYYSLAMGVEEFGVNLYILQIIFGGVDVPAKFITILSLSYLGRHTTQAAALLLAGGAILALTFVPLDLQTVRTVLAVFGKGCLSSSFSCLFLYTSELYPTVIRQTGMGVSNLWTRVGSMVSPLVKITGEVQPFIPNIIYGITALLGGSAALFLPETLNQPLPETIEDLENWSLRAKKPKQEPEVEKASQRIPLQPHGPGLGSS

hOAT3 [2] = biological target: T1, hOAT3; settings: MDCK
monkeypox virus = settings: monkey, in vivo, iv, 20 mg/kg; cited from earlier work
[3] = biological target: T2, human Organic Anion Transporter 1 (hOAT1) (Homo sapiens, UniProt Q4U2R8)
T2 sequence (Q4U2R8 1-563): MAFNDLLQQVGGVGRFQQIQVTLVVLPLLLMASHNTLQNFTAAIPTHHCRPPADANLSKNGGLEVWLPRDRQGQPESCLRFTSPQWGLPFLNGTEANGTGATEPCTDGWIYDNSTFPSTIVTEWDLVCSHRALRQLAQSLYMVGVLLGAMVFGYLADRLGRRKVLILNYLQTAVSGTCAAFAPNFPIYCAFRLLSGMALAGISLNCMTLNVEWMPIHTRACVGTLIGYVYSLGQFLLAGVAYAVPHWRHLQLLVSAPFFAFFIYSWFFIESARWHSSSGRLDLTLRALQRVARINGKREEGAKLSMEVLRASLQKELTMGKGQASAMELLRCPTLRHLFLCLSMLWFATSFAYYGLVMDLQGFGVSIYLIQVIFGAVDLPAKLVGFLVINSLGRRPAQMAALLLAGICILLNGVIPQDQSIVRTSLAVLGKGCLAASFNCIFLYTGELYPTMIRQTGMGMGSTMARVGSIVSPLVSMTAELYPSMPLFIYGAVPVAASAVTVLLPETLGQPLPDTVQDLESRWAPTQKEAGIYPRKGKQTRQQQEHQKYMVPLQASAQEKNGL

[4] = human, in vivo, po
vaccinia virus = test system: vaccinia virus; parameters: species or system human; settings: in vivo
variola virus = settings: read-out: in vitro potency; cited from earlier work
rabbitpox virus = test system: rabbitpox virus; parameters: species or system rabbits; settings: rabbit, in vivo
[5] = human, in vivo, po; remark: listed apart in the source

SMILES	lower uptake efficiency (Vmax/Km) (hOAT3 [1]) [fold]	net uptake in hOAT3 expressing cells (hOAT3 [2])	survivors (monkeypox virus)	Uptake (Transporter) ([3]; 5 min)	net uptake in hOAT1 expressing cells ([3]; MDCK)	uptake in the presence of OAT inhibitor probenecid ([3]; MDCK)	ST-246 levels [4]	clinical outcome of progressive vaccinia (vaccinia virus)	EC50 (variola virus) [nM]	substrate for hOAT3 (hOAT3 [2])	effective single dose (rabbitpox virus) [mg/kg]	preventing mortality (rabbitpox virus)	survivors (rabbitpox virus; 20 mg/kg)	nephrotoxicity [5]	effect of 20% serum on uptake ([3]; MDCK)	substrate for hOAT1 ([3]; MDCK)	Net Transporter Uptake ([3]; human, MDCK) [pmol/min/cm^2]
Nc1ccn(C[C@@H](CO)OCP(=O)(O)O)c(=O)n1 [CDV, cidofovir]	> 100	not enhanced	7/8	116 ± 22 pmol/min/cm^2 and 117 ± 15 pmol/min/cm^2	enhanced	decreased	–	–	–	–	–	–	–	–	–	–	–
O=C(NN1C(=O)[C@@H]2[C@@H]3C=C[C@@H]([C@H]4C[C@@H]34)[C@@H]2C1=O)c1ccc(C(F)(F)F)cc1 [ST-246, reference compound]	–	–	–	–	–	–	lower	improvement of progressive vaccinia	–	–	–	–	–	–	–	–	–
CCCCCCCCCCCCCCCCOCCCOP(=O)(O)CO[C@H](CO)Cn1ccc(N)nc1=O [CMX001, 1-O-hexadecyloxypropyl cidofovir]	–	not enhanced	–	–	not enhanced	–	–	improvement of progressive vaccinia	100	not a substrate	20	effective in preventing mortality	11/12	no signs of nephrotoxicity have been observed	substantially reduced	not a substrate	−0.3 ± 5.4
